Measurements taken from patent publication US9844224B2, “Bitter alkaloid containing consumables comprising bitter blockers” (GIVAUDAN SA, priority 2008, dated 2017).

Experiments:
[1] = tested on: naringin and limonin bitterness; settings: cited from earlier work
[2] = tested on: sweet sensitive panelists; assay: Ranking with R-index analysis: isointensity of HDG to sucrose; assay type: in vivo, human
Protocol: (§1) All examples were performed with sweet sensitive panelists able to detect at least 0.5% of sucrose or less, unless stated otherwise. The concentration detectable by the average consumer will be higher. The results were obtained using 20 panelists in two replications.
The sucrose concentration that tastes isointense in sweetness to HDG was determined using samples of 15 ppm and 20 ppm, each of which was directly compared to a sucrose sample (sucrose solutions of 0.5%, 1%, 1.5% and 2% concentration). Fifteen milliliters of each blinded sample was presented, at room temperature, in random order to 20 sweet sensitive panelists. In two replications (over 1 session), panelists were asked to rank the solutions, from least sweet to most sweet. The data was subjected to an R-index analysis.

[3] = tested on: alkaloid bitterness in cocoa; assay: Tasting panel, sample vs control: reduction of alkaloid bitterness in cocoa; assay type: in vivo, human; settings: 10% unsweetened cocoa powder in water; for bitterness of sample compared to control: room temperature
Protocol: (§2) All concentrations in % are % (wt/wt), unless otherwise indicated. A tasting panel of 5 to 8 panelists was asked to compare the bitterness of two samples (sample with trilobatin and control without) of various caffeine-containing consumables.
(§3) Different concentrations/ranges were tested, with the ones indicated being the ones with a clear bitter masking effect. While higher concentrations reach a bitter masking effect, panelists found a negative impact on the overall flavor profile at higher concentrations.
A tasting panel of 5 to 8 panelists was asked to compare and record the sensory attribute differences between two samples (sample with trilobatin and control without).
The control and sample contained 10% unsweetened cocoa powder in water (Dutch processed dark cocoa powder, commercially available from Hersheys), the sample additionally contained 0.0005% trilobatin.
The samples were served at room temperature.
A tasting panel of 5 to 8 panelists was asked to compare and record the sensory attribute differences between two samples (sample with HDG and control without).
The control and sample contained 10% unsweetened cocoa powder in water (Dutch processed dark cocoa powder, commercially available from Hersheys), the sample additionally contained 0.0020% (w/w) HDG.

[4] = tested on: sweet sensitive panelists; assay: Small panel ranking of HDG in water against sucrose solutions; assay type: in vivo, human
Protocol: as §1
Further three small panel testings were performed. HDG samples were prepared in concentrations of 5 ppm, 10 ppm, 15 ppm, and 20 ppm in water. All the samples were coded (presented blind) and given to the panel in random order. The panel was also presented with sucrose solutions for comparison The panel was asked to taste each sample and rank the samples from the least sweet to most sweet.

[5] = tested on: alkaloid caffeine bitterness in instant coffee; assay: Tasting panel, sample vs control: reduction of alkaloid bitterness in coffee; assay type: in vivo, human; settings: instant coffee in water
Protocol: as §2, §3
The sample and control were instant coffee (Nescafe, Taster's choice) in water, the sample additionally contained 0.001% (10 ppm) trilobatin. All samples/controls were presented warm to the panelists.

[6] = tested on: caffeine bitterness; assay: Tasting panel, sample vs control: reduction of caffeine bitterness in water; assay type: in vivo, human; settings: 200 ppm caffeine in water
Protocol: as §2, §3
The control and sample contained 0.02 or 200 ppm % caffeine in water, the sample additionally contained 0.000125 to 0.0020 trilobatin.

[7] = tested on: sweet sensitive panelists; assay: Ranking method with R-index: isointensity of trilobatin in water to sucrose; assay type: in vivo, human
Protocol: (§4) The sweetness detection threshold of trilobatin was determined as detailed below in 1a, 1b and 1c. All examples were performed with sweet sensitive panelists able to detect at least 0.5% of sucrose or less, unless stated otherwise. The concentration detectable by the average consumer will be higher.
The sensory evaluation was conducted using a ranking method. Samples at ambient temperature were randomly presented in 15 ml blind aliquots (unidentifiable by panelists). Panels consisted of 15 sweet sensitive subjects and samples were presented in 2 replications over 1 session. After tasting each sample, the mouth was rinsed thoroughly with water at ambient temperature prior to tasting the next sample.
Panelists were presented with 0.5%, 1%, 1.5% and 2% sucrose solutions in water and a fifth sample of 100 ppm trilobatin in water. Subjects were asked to rank the samples from low to high with respect to perceived sweet taste. R-indices were calculated for 100 ppm trilobatin versus either 0.5%, 1%, 1.5% or 2% sucrose.
The sensory evaluation was conducted using the method described in example 1b. The panels consisted of 7 sweet sensitive panelists. Panelists were presented with 0.5%, 1%, and 1.5% sucrose solutions in water and a fourth sample of 200 ppm trilobatin in water. Panelists were asked to rank the samples from low to high with respect to perceived sweet taste.

[8] = tested on: tannin-derived bitterness (tannic acid); assay: Tasting panel, sample vs control: tannin bitterness in water; assay type: in vivo, human; settings: 0.05%/500 ppm tannic acid in water; 0.000125 to 0.002% trilobatin
From the text: as §2
The control and sample contained 0.05%/500 ppm tannic acid in water. The samples additionally contained 0.000125 to 0.002% trilobatin.

[9] = tested on: alkaloid bitterness in brewed black tea; assay: Tasting panel, sample vs control: reduction of alkaloid bitterness in tea; assay type: in vivo, human; settings: 0.001% trilobatin, warm, most panelists
Protocol: as §2, §3
Sample and control were brewed black tea (tea bags, Lipton), the sample additionally contained 0.001% trilobatin which was added to the brewed tea.
Samples and controls were served warm.

[10] = tested on: panelist trained for sweetness detection; assay: Paired comparison of trilobatin in water versus sucrose solutions (sweetness); assay type: in vivo, human
Protocol: as §4
Trilobatin (20 ppm, 60 ppm, 100 ppm) in water samples were evaluated for isointensity to sucrose solutions in a concentration of 0, 0.5 and 1% sucrose using a paired comparison method. Samples were paired and tasted left to right with rinsing (water) in between, by one panelist trained for sweetness detection.
The trilobatin samples were compared to either 0%, 0.5%, or 1% sucrose solutions.

[11] = tested on: alkaloid bitterness in caffeine containing energy drinks; assay: Tasting panel, sample vs control: reduction of alkaloid bitterness in an energy drink; assay type: in vivo, human; settings: Redbull and Xenergy energy drinks, 0.0005% trilobatin
Protocol: as §2, §3
The control and sample were caffeine containing energy drinks, the sample additionally contained 0.0005% trilobatin.
The tested caffeine containing energy drinks were sucrose-sweetened glucoronlactone and taurin containing Redbull™ energy drink, and Xenergy™ (Zyions Inc., USA) which is sucralose/Acesulfame-K sweetened and contains vitamin B, calcium, taurine and glucoronlactone.

## COc1ccc(CCC(=O)c2c(O)cc(O[C@@H]3O[C@H](CO)[C@@H](O)[C@H](O)[C@H]3O)cc2O)cc1O [HDG, 1-[4-(beta-D-glucopyranosyloxy)-2,6-dihydroxyphenyl]-3-(3-hydroxy-4-methoxyphenyl)-1-propanone]
[1]; concentrations at or below the sweet taste detection threshold of HDG
  suppression of naringin and limonin bitterness: not
[1]; high suprathreshold concentration (ratio taste units sweetener to bitter compound at least 2:1)
  naringin and limonin bitterness: suppress
[2]; vs 0.5% sucrose
  sample sweetness (HDG, 15 ppm): sweeter
  sample sweetness (HDG, 20 ppm): Sweeter
[2]; vs 1.0% sucrose
  sample sweetness (HDG, 15 ppm): less sweet
  sample sweetness (HDG, 20 ppm): Isosweet
[2]; vs 1.5% sucrose
  sample sweetness (HDG, 15 ppm): less sweet
  sample sweetness (HDG, 20 ppm): Less sweet
[2]; vs 2.0% sucrose
  sample sweetness (HDG, 15 ppm): less sweet
  sample sweetness (HDG, 20 ppm): Less sweet
[3]; 0.0020% (w/w) HDG
  bitter aftertaste: bitter aftertaste that remained
  cocoa aroma: keep their cocoa aroma
  purine alkaloid bitterness (theobromine, caffeine) in the middle: reduced
  bitterness of sample compared to control: less bitter
[4]; 5 ppm HDG in water
  Rank and taste: 1 - not sweet
[4]; 10 ppm HDG in water
  Isointensity to sucrose: 0.5 % sucrose
  Rank and taste: 2 - very slightly sweet
[4]; 15 ppm HDG in water
  Isointensity to sucrose: 0.75% sucrose
  Rank and taste: 3 - slightly sweet
[4]; 20 ppm HDG in water
  Rank and taste: 4 - sweet
[4]; HDG in water
  sweetness threshold detected by sweet sensitive individuals: about 10 ppm
[4]; in vivo
  sweet taste detection threshold relative to that of trilobatin: about 10 times less

## O=C(CCc1ccc(O)cc1)c1c(O)cc(O[C@@H]2O[C@H](CO)[C@@H](O)[C@H](O)[C@H]2O)cc1O [trilobatin, 1-[4-(beta-D-glucopyranosyloxy)-2,6-dihydroxyphenyl]-3-(4-hydroxyphenyl)-1-propanone]
[5]
  concentration at which suppression of coffee flavor starts: about 20 ppm
  concentration at which the coffee flavor is significantly affected: ≥ 50 ppm
[5]; 0.001% (10 ppm) trilobatin
  alkaloid caffeine bitterness in the middle and towards the end of the temporal bitterness profile: markedly reduced
  bitter aftertaste: no bitter aftertaste
[5]; 0.001% (10 ppm) trilobatin, warm
  bitterness of sample compared to control: less bitter
[6]; 0.000125% (1.25 ppm) trilobatin
  caffeine bitterness reduced compared to the control: not
[6]; 0.0005% (5 ppm) up to 0.0020 (20 ppm) trilobatin
  caffeine bitterness compared to the control: reduced
[7]; vs 0.5% sucrose
  sample sweetness (trilobatin, 100 ppm): Isosweet
[7]; vs 1.0% sucrose
  sample sweetness (trilobatin, 100 ppm): Less sweet
[7]; vs 1.5% sucrose
  sample sweetness (trilobatin, 100 ppm): Less sweet
[7]; vs 2.0% sucrose
  sample sweetness (trilobatin, 100 ppm): Less sweet
[8]
  bitterness of samples and control: similarly bitter
[3]; 0.0005% trilobatin
  alkaloid bitterness in the middle and towards the end of the temporal bitterness profile: markedly reduced
  bitter aftertaste: no bitter aftertaste
  cocoa aroma: keep their cocoa aroma
  bitterness of sample compared to control: less bitter
[9]
  bitterness of sample compared to control: slightly less bitter
[10]; 20 ppm trilobatin in water vs 0% sucrose
  Taste of trilobatin samples compared to sucrose: isosweet
[10]; 20 ppm trilobatin in water vs 0.5% sucrose
  Taste of trilobatin samples compared to sucrose: notably less sweet
[10]; 60 ppm trilobatin in water vs 0% sucrose
  Taste of trilobatin samples compared to sucrose: weakly sweeter
[10]; 60 ppm trilobatin in water vs 0.5% sucrose
  Taste of trilobatin samples compared to sucrose: less sweet
[10]; 100 ppm trilobatin in water vs 0% sucrose
  Taste of trilobatin samples compared to sucrose: sweeter
[10]; 100 ppm trilobatin in water vs 0.5% sucrose
  Taste of trilobatin samples compared to sucrose: isosweet
[10]; 100 ppm trilobatin in water vs 1% sucrose
  Taste of trilobatin samples compared to sucrose: less sweet
[11]
  bitter aftertaste: slight bitter aftertaste remains
  bitterness in the middle of the temporal pattern: very effectively blocked
  bitterness of sample compared to control: less bitter
